Key:
[1] = test system: mCa2+ efflux channels; experiment: Mitochondrial Ca2+ efflux in permeabilized HEK293T cells; format: cell-based, human; conditions: for effect on mCa2+ efflux: 1 μM added after 20 μM Ca2+ pulse
Experimental: (§1) An equal number of IHEK293T (6×10^6 cells) were washed in Ca^2+ free PBS, pH 7.4, resuspended and permeabilized with 40 μg/ml digitonin in 1.5 ml of intracellular medium (ICM) composed of 120 mM KCl, 10 mM NaCl, 1 mM K—H2PO4, 20 mM HE PES-Tris, pH 7.2 and 2 μM thapsigargin to block the SERCA pump. All measurements were performed in the presence of 2 mM succinate. The permeabilized cells were loaded with JC-1 (800 nM) and Fura2-FF (0.5 μM), respectively. Fluorescence was monitored in a multi-wavelength excitation dual-wavelength emission fluorimeter. [Ca^2+]out is represented as the excitation ratio (340 nm/380 nm) of Fura2-FF/FA fluorescence and ΔΨm as the ratio of the fluorescence of J-aggregate (570 nm excitation/595 nm emission) and monomer (490 nm excitation/535 nm emission) forms of JC-1. A series of extra-mitochondrial Ca^2+ bolus (20 μM) was added and mitochondrial uncoupler, CCCP (2 jμM), were added at the indicated time points. All of the experiments were performed at 37° C. with constant stirring.
FIG. 4D is a graph showing assessment of mitochondrial Ca^2+ influx and efflux rates. Permeabilized HEK293T cells were pulsed with 20 μM Ca^2+ at 350 s to measure mitochondrial Ca^2+ uptake, followed by the addition of the 1 μM C-2 or Ru360 at 550 s, 10 μM CGP37157 at 600 s, and 6 μM CCCP at 750 s. In FIG. 4D, a representative trace depicts the comparison of C-2 and Ru360. FIG. 4E is a bar chart showing quantitation of Ca^2+ influx rate. FIG. 4F is a bar chart showing quantification of Ca^2+ efflux rate after addition of C-2 or Ru360. FIG. 4G is a bar chart showing quantification of CCCP-induced release of accumulated mitochondrial Ca^2+. […] To further confirm the selectivity of C-2 for the MCU, mCa^2+ uptake, mCa^2+ efflux rates and matrix Ca^2+ levels were measured in permeabilized HEK293T cells before and after treatment with C-2 using the fluorescent Ca^2+ indicator Fura-2-FF. […] Ru360 or C-2 were next added to inhibit MCU-mediated Ca^2+ uptake and subsequently visualize [Ca^2+]m efflux (FIG. 4D).

[2] = molecular target: T1, mitochondrial calcium uniporter (MCU) (Homo sapiens, UniProt Q8NE86); experiment: MCU-mediated Ca2+ uptake and ΔΨm in permeabilized HEK293T cells; format: cell-based; design: endogenous in cells; host or cells: HEK293T (digitonin-permeabilized); conditions: for MCU mediated mCa2+ uptake / transient ΔΨm loss (JC-1): 5 μM compound, 20 μM Ca2+ bolus; for MCU mediated mCa2+ uptake: digitonin permeabilized HEK293T cells; for transient ΔΨm loss (JC-1): permeabilized HEK293T cells
T1 sequence (Q8NE86 51-351): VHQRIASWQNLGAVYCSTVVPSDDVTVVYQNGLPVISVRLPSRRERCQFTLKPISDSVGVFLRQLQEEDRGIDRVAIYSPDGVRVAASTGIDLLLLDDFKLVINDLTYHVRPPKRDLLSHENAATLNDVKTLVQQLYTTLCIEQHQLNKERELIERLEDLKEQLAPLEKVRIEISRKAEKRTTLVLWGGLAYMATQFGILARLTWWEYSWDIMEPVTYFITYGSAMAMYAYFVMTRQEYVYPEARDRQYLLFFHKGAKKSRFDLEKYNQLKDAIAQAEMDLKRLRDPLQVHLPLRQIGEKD
T1 sequence (Q9H4I9 48-107 partner limits assumed): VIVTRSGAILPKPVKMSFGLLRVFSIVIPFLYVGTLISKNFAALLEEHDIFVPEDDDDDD
Experimental: as §1
With the new nitrido-bridged ruthenium compounds C-2 and C-3 prepared, MCU-inhibitory properties of these compounds were evaluated and their activities compared to C-1, the oxo-bridged Ru360 analogue of the conventional art (S. R. Nathan et al., Inorg. Chem. 2017, 56, 3123-3126 and S. R. Nathan et al., J. Vis. Exp. 2017, 56527). The cytotoxicity of the complexes in HEK293 cells was first measured using the colorimetric thiazolyl blue tetrazolium bromide (MTT) assay, as well known in the art. […] To measure the effect of these compounds on MCU activity, permeabilized HEK293T cells were treated with commercially available Ru360, C-1, C-2, or C-3 (5 jμM) 200 seconds prior to the delivery of a 20 μM bolus of Ca^2+ in the presence of 2 mM succinate as an energy source and the sarco/endoplasmic reticulum Ca^2+-ATPase (SERCA) pump blocker thapsigargin to prevent ER Ca^2+ uptake (S. Shanmughapriya et al., Sci. Signal. 2015, 8, ra23).
FIGS. 2A-2C are graphs showing changes in mitochondrial membrane potential (ΔΨm, JC-1, top panel) and extramitochondrial Ca^2+([Ca^2+]out) clearance (Fura-2 FF, bottom panel) in digitonin permeabilized HEK293T cells in response to 20 μM of Ca^2+ after treatment with 5 μM of C-1 (FIG. 2A), C-2 (FIG. 2B), and C-3 (FIG. 2C). The transient drop in ΔΨm in control cells upon Ca^2+ addition indicates accumulation of Ca^2+ in the mitochondrial matrix. FIG. 2D is a graph quantifying the rate of [Ca^2+] uptake as a function of decrease in [Ca^2+]out after a […] Ca^2+ pulse. […] Additionally, ΔΨm was monitored using 5,5′,6,6′-tetrachloro-1,1′,3,3′-tetraethylbenzimidazolylcarbocyanine iodide (JC-1) dye (M. Reen et al., Biochemistry 1991, 30, 4480-4486).
Having identified (C-2 as a cell-permeable MCU inhibitor, a dose-response analysis was performed to determine the potency of C-2 towards mCa^2+ uptake inhibition of C-2 in a permeabilized cell system. Permeabilized IHEK293T cells were treated with C-2 (1 nM to 1 μM). A 20 μM Ca^2+ bolus was added after baseline recording, and the extra-mitochondrial calcium cleared was used as an indicator for MCU-mediated mCa^2+ uptake using Fura-2FF. The results are shown in FIGS. 4A-4C. FIG. 4A includes representative traces of [Ca^2+]out clearance in permeabilized HEK293T cells challenged with a range of C-2 concentrations (1, 2, 3, 5, and 10 nM). FIG. 4B is a graph comparing MCU-inhibitory effect by Ru360 (30 nM) and C-2 (2 and 10 nM) at lower concentrations. FIG. 4C is a graph showing calculation of dose-dependent IC50 inhibition by C-2 and Ru360. Data represent mean±SEM (n=3-6), n.s.=not significant. […] Furthermore, complete inhibition of mCa^2+ uptake was observed when cells were dosed with 10 nM C-2 while 500 nM of Ru360 was required for the same response (FIGS. 4A and 4B).

Compound | effect on mCa2+ efflux [1] | change in activity upon treatment with CGP-37157 and CCCP ([1]; 10 μM CGP37157, 6 μM CCCP) | IC50 [2] [nM] | MCU mediated mCa2+ uptake [2] | transient ΔΨm loss (JC-1) [2]
N.N.N.N.N.N.N.N.[Cl-].[Cl-].[N-3].[Ru+4].[Ru+4] [C-2, [Ru2(μ-N)(NH3)8Cl2]Cl3] | do not affect mCa^2+ efflux channels | No change | 2.6 | significant reduction in MCU mediated mCa^2+ uptake | no transient A m loss
N.N.N.N.N.N.N.N.O=C[O-].O=C[O-].[O-2].[Ru+3].[Ru+4] [Ru360, reference compound] | do not affect mCa^2+ efflux channels | – | 30 | significant reduction in MCU mediated mCa^2+ uptake | no transient A m loss
[Ru2(μ-N)(en)4Cl2]Cl3 [C-3] | – | – | – | significant reduction in MCU mediated mCa^2+ uptake | no transient A m loss

Reference: patent US11154569B2, “Ruthenium μ-nitrido complexes and their use as calcium uptake inhibitors” (CORNELL UNIVERSITY, priority 2018, dated 2021)
